Results taken from patent US11220483B2, “Tetrahydro-benzo[d]azepine derivatives as GPR120 modulators” (CALDAN THERAPEUTICS LIMITED, priority 2018, dated 2022).

Target: T1, human GPR120 (Homo sapiens, UniProt Q5NUL3)
T1 construct: expressed in transfected cells; host or cells: HEK293T, transient transfection with PEI
T1 sequence (Q5NUL3 1-361): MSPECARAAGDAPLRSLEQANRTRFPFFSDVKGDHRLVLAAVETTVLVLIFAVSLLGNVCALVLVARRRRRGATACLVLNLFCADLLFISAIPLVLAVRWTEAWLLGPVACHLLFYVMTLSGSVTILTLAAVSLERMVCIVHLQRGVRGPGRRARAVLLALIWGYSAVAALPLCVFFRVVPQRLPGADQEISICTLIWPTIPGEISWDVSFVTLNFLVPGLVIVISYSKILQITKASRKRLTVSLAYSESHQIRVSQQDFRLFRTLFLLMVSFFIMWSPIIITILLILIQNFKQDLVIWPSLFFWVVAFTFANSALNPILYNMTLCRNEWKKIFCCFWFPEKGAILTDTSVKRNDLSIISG
Test: Human GPR120-β Arrestin 2 BRET agonist assay
Type: cell-based
Settings: HEK293T cells transiently co-expressing hGPR120-eYFP and β-arrestin 2-RLuc; BRET normalised to DMSO (0%) and TUG-891 (100%); read-out: hGPR120 pEC50 (converted)
Method: pEC50 data was obtained by the following procedure:
Human GPR120-β Arrestin 2 Bio-Luminescence Resonance Energy Transfer (BRET) Agonist Assay Procedure
HEK293T cells were cultured in growth media composed of DMEM L-glutamine media supplemented with 10% (v:v) fetal bovine serum (FBS) and 1% (v:v) 10,000 units penicillin/10 mgml^−1 streptomycin at 37° C., 5% CO2. HEK293T cells transiently co-expressing human GPR120 […] and b-arrestin 2 were generated by transfection with plasmids encoding a construct of hGPR120 […] fused at its C terminal with enhanced yellow fluorescent protein (eYFP), and another encoding β-arrestin 2 fused to Renilla luciferase (RLuc), using Polyethylenimine (PEI) as the transfection reagent.
Transfected cells were cryopreserved in batches for consistency between replicate assays. Twenty-four hours post transfection, cells were harvested with non-enzymatic cell dissociation buffer and re-suspended in DMEM medium supplemented with 10% DMSO and 10% FBS before being transferred first to −80° C. overnight and then to liquid nitrogen for long-term storage. On the day prior to the assay, cells were thawed at 37° C. and re-suspended in growth media. A 96 well white opaque bottom microtitre plate was then seeded with 40,000 cells in a volume of 100 μl growth media per well and seeded plates were then incubated overnight at 37° C., 5% CO2. On the day of the BRET experiment, cells were washed twice with BRET assay buffer (Hanks balanced salt solution (HBSS) supplemented with 10 mM HEPES (pH 7.4)), then 80 μl per well of BRET assay buffer was added before the plate was incubated for 30 minutes at 37° C., 5% CO2. Then, Renilla luciferase substrate coelenterazine h (5 μM) was added to the cells and incubated at 37° C. for 10 minutes before the addition of GPR120 agonist (TUG-891) or test compound for a further 5 minutes at 37° C.
Bio-luminescence at λ 535 nm and λ 475 nm was then measured with a Pherastar FsX instrument, and the λ 535/λ 475 ratio of bio-luminescence was then used to calculate a BRET value. hGPR120 agonist potency values (pEC50) were calculated by normalising the BRET values to the DMSO vehicle (0% control) and TUG-891 (100% control) and then fitting the normalised data to a 3-parameter concentration-response curve.

| Compound | EC50 |
| --- | --- |
| O=C(O)CCc1ccc2c(c1)CCN(c1nc(OC3CCC3)ccc1F)C2 [Compound 7, 3-(2-(6-cyclobutoxy-3-fluoropyridin-2-yl)-1,2,3,4-tetrahydroisoquinolin-6-yl)propanoic acid] | 15.8 nM |
| O=C(O)CCc1ccc2c(c1)CCN(c1ncc(F)c(OC3CCC3)n1)C2 [Compound 8, 3-(2-(4-cyclobutoxy-5-fluoropyrimidin-2-yl)-1,2,3,4-tetrahydroisoquinolin-6-yl)propanoic acid] | 63.1 nM |
| O=C(O)C1CC1c1ccc2c(c1)CCN(c1nc(OC3CCC3)ccc1F)C2 (centres unmarked) [Compound 37, 2-(2-(6-cyclobutoxy-3-fluoropyridin-2-yl)-1,2,3,4-tetrahydroisoquinolin-6-yl)cyclopropane-1-carboxylic acid] | 39.8 nM |
| O=C(O)C1CC1c1ccc2c(c1)CCN(c1cc(OC3CCC3)cc(F)c1F)C2 (centres unmarked) [Compound 36, 2-(2-(5-cyclobutoxy-2,3-difluorophenyl)-1,2,3,4-tetrahydroisoquinolin-6-yl)cyclopropane-1-carboxylic acid] | 100 nM |
| O=C(O)CCc1cc2c(cc1F)CN(c1cc(F)cc(OC3CCC3)c1)CC2 [Compound 42, 3-(2-(3-Cyclobutoxy-5-fluorophenyl)-7-fluoro-1,2,3,4-tetrahydroisoquinolin-6-yl)propanoic Acid] | 316 nM |
| O=C(O)CCc1ccc2c(c1)CCN(c1cc(F)cc(OC3CCC3)c1)C2 [Compound 19, 3-(2-(3-cyclobutoxy-5-fluorophenyl)-1,2,3,4-tetrahydroisoquinolin-6-yl)propanoic acid] | 25.1 nM |
| O=C(O)CCc1ccc2c(c1)CCN(c1cc(OC3CCC3)ccc1F)C2 [Compound 13, 3-(2-(5-cyclobutoxy-2-fluorophenyl)-1,2,3,4-tetrahydroisoquinolin-6-yl)propanoic acid] | 20 nM |
| O=C(O)CCc1cc2c(cc1F)CN(c1cc(OC3CCC3)ccc1F)CC2 [Compound 39, 3-(2-(5-cyclobutoxy-2-fluorophenyl)-7-fluoro-1,2,3,4-tetrahydroisoquinolin-6-yl)propanoic Acid] | 63.1 nM |
| O=C(O)CCc1ccc2c(c1)CCN(c1cccc(OC3CCC3)n1)C2 [Compound 21, 3-(2-(6-cyclobutoxypyridin-2-yl)-1,2,3,4-tetrahydroisoquinolin-6-yl)propanoic acid] | 39.8 nM |
| O=C(O)C1CC1c1ccc2c(c1)CCN(c1cccc(Oc3ccccc3)c1)C2 (single isomer, unassigned) [38 isomer 1] | 50.1 nM |
| Cc1ccc(OC2CCC2)cc1N1CCc2cc(CCC(=O)O)ccc2C1 [Compound 14, 3-(2-(5-cyclobutoxy-2-methylphenyl)-1,2,3,4-tetrahydroisoquinolin-6-yl)propanoic acid] | 50.1 nM |
| O=C(O)CCc1ccc2c(c1)CCN(c1cc(OC3CCC3)ccc1F)CC2 [Compound 46, 3-(3-(5-cyclobutoxy-2-fluorophenyl)-2,3,4,5-tetrahydro-1H-benzo[d]azepin-7-yl)propanoic acid] | 79.4 nM |
| O=C(O)CCc1ccc2c(c1)CCN(c1cc(Cl)cc(OC3CCC3)c1)C2 [Compound 43, 3-(2-(3-chloro-5-cyclobutoxyphenyl)-1,2,3,4-tetrahydroisoquinolin-6-yl)propanoic acid] | 20 nM |

Now from value to molecule:

| EC50 | Compound |
| --- | --- |
| 20 nM | O=C(O)CCc1ccc2c(c1)CCN(c1cc(Oc3ccccc3)ccc1F)C2 [Compound 9, 3-(2-(2-fluoro-5-phenoxyphenyl)-1,2,3,4-tetrahydroisoquinolin-6-yl)propanoic acid] |
| 7940 nM | N#Cc1ccc(N2CCc3cc(CCC(=O)O)ccc3C2)cc1 [Compound 17, 3-(2-(4-cyanophenyl)-1,2,3,4-tetrahydroisoquinolin-6-yl)propanoic acid] |
| 31.6 nM | O=C(O)CCc1cc(F)c2c(c1)CCN(c1cc(OC(F)(F)F)ccc1F)C2 [Compound 40, 3-(8-fluoro-2-(2-fluoro-5-(trfluoromethoxy)phenyl)-1,2,3,4-tetrahydroisoquinolin-6-yl)propanoic acid] |
| 501 nM | CC(C)Oc1cccc(N2CCc3cc(CCC(=O)O)ccc3C2)c1 [Compound 28, 3-(2-(3-Isopropoxyphenyl)-1,2,3,4-tetrahydroisoquinolin-6-yl)propanoic Acid] |
| 200 nM | CC(C)Oc1ccc(F)c(N2CCc3ccc(CCC(=O)O)cc3CC2)c1 [Compound 48, 3-(3-(2-fluoro-5-isopropoxyphenyl)-2,3,4,5-tetrahydro-1H-benzo[d]azepin-7-yl)propanoic acid] |
| 1260 nM | O=C(O)CCc1ccc2c(c1)CN(c1cc(OC(F)(F)F)ccc1F)CC2 [Compound 33] |
| 63.1 nM | COc1cc(OC(F)(F)F)cc(N2CCc3cc(CCC(=O)O)ccc3C2)c1 [Compound 25, 3-(2-(3-methoxy-5-(trifluoromethoxy)phenyl)-1,2,3,4-tetrahydroisoquinolin-6-yl)propanoic acid] |
| 79.4 nM | CC(Cc1ccc2c(c1)CCN(c1cc(OC(F)(F)F)ccc1F)C2)C(=O)O (centres unmarked) [Compound 26, 3-(2-(2-Fluoro-5-(trifluoromethoxy)phenyl)-1,2,3,4-tetrahydroisoquinolin-6-yl)-2-methylpropanoic Acid] |
| 501 nM | O=C(O)CCc1ccc2c(c1)CCN(c1cccc(C(F)(F)F)c1)C2 [Compound 16, 3-(2-(3-(trifluoromethyl)phenyl)-1,2,3,4-tetrahydroisoquinolin-6-yl)propanoic acid] |
| 31.6 nM | O=C(O)CCc1cc(F)c2c(c1)CCN(c1cccc(Oc3ccccc3)c1)C2 [Compound 41, 3-(8-fluoro-2-(3-phenoxyphenyl)-1,2,3,4-tetrahydroisoquinolin-6-yl)propanoic acid] |
| 100 nM | O=C(O)C1CC1c1ccc2c(c1)CCN(c1cc(OC(F)(F)F)ccc1F)C2 (centres unmarked) [Compound 35, 2-(2-(2-fluoro-5-(trifluoromethoxy)phenyl)-1,2,3,4-tetrahydroisoquinolin-6-yl)cyclopropane-1-carboxylic acid] |
| 39.8 nM | O=C(O)CCc1ccc2c(c1)CCN(c1cc(OC(F)(F)F)ccc1F)C2 [Compound 1, 3-(2-(2-Fluoro-5-(trifluoromethoxy)phenyl)-1,2,3,4-tetrahydroisoquinolin-6-yl)propanoic Acid] |
| 158 nM | O=C(O)CCc1ccc2c(c1)CCN(c1cc(OC3CC3)ccc1F)CC2 [Compound 47, 3-(3-(5-cyclopropoxy-2-fluorophenyl)-2,3,4,5-tetrahydro-1H-benzo[d]azepin-7-yl)propanoic acid] |
| 158 nM | O=C(O)CCc1ccc2c(c1)CCN(c1cccc(OC(F)(F)F)c1)C2 [Compound 10, 3-(2-(3-(Trifluoromethoxy)phenyl)-1,2,3,4-tetrahydroisoquinolin-6-yl)propanoic Acid] |
| 631 nM | CC1(C)Cc2cc(Cl)cc(N3CCc4cc(CCC(=O)O)ccc4C3)c2O1 [Compound 15, 3-(2-(5-chloro-2,2-dimethyl-2,3-dihydrobenzofuran-7-yl)-1,2,3,4-tetrahydroisoquinolin-6-yl)propanoic acid] |
| 126 nM | O=C(O)C1CC1c1ccc2c(c1)CCN(c1cc(OC(F)(F)F)ccc1F)CC2 (centres unmarked) [Compound 52, 2-(3-(2-fluoro-5-(trifluoromethoxy)phenyl)-2,3,4,5-tetrahydro-1H-benzo[d]azepin-7-yl)cyclopropanecarboxylic Acid] |
| 501 nM | C[C@H](Cc1ccc2c(c1)CCN(c1cc(OC(F)(F)F)ccc1F)CC2)C(=O)O [Compound 51, (R)-3-(3-(2-fluoro-5-(trifluoromethoxy)phenyl)-2,3,4,5-tetrahydro-1H-benzo[d]azepin-7-yl)-2-methylpropanoic Acid] |
| 25.1 nM | O=C(O)CCc1ccc2c(c1)CCN(c1cc(OC(F)(F)F)ccc1F)CC2 [Compound 45, 3-(3-(2-fluoro-5-(trifluoromethoxy)phenyl)-2,3,4,5-tetrahydro-1H-benzo[d]azepin-7-yl)propanoic Acid] |
| 1000 nM | COc1ccc(Cl)cc1N1CCc2cc(CCC(=O)O)ccc2C1 [Compound 29, 3-(2-(5-chloro-2-methoxyphenyl)-1,2,3,4-tetrahydroisoquinolin-6-yl)propanoic acid] |
